Measurements from a melting point compilation (Tetko et al.; mined from patent text by program, amines drawn as free bases though some values may be those of a salt).

In the case of CCOc1ccn([C@H]2CS[C@@H](CO)O2)c(=O)n1 (relative stereo), the melting point is reported as 117 to 118 °C. For CCOC(=O)c1cnc2ccn(Cc3ccccc3)n2c1=O, the melting point was 172 to 173 °C. CCCn1nc2c(N)nc3ccccc3c2c1CCNC(=O)c1cccnc1 gave a melting point of 219 to 221 °C. Work on COC(=O)C(Cc1ccccc1)Oc1ccc2cc(CNC(=O)c3oc4ccccc4c3C)ccc2c1Br (stereo not given) yielded a melting point of 129 to 133 °C. For C/C(=C\c1ccc(C(=O)OCc2ccc([N+](=O)[O-])cc2)cc1)c1ccc2c(c1)C(C)(C)CCC2(C)C, the melting point was 183 to 184 °C. CCOc1cc(C(CC#N)N2Cc3c(Cl)ccc(NC(=O)C4CC4)c3C2=O)ccc1OC (stereo not given) showed a melting point of 200 to 202 °C. For O=C(O)c1c2n(c3cc(N4CCOCC4)c(F)cc3c1=O)CS2, the melting point was 244 to 248 °C. CCOC(=O)c1c(Cl)nc(CC)n1Cc1ccc2oc(-c3ccccc3N)c(Br)c2c1 gave a melting point of 53 to 56 °C. Work on Cc1nc2c3cccc(Cl)c3ccn2c1CC(N)=O yielded a melting point of 284 to 286 °C. Molecule CC(C)Cn1c(CNC(=O)OC(C)(C)C)c(-c2cccs2)c2cc(C#N)ccc2c1=O has a melting point of 189 to 190 °C. Molecule CCCCCC(O)C=Cc1scnc1CCCCCCC(=O)O (stereo not given) has a melting point of 73 to 74 °C. CCn1c(=O)c2[nH]c(/C=C/c3cccc(OC)c3)nc2n(CC)c1=O gave a melting point of 271 to 272 °C. Work on CC(C)(C)c1ccc(N(Cc2cccc3ccccc23)c2ccccc2)cc1 yielded a melting point of 135 to 137 °C. For COc1ccc(NC(=O)c2coc(-c3ccncc3)c2)cc1N1CCN(C)CC1, the melting point was 103 to 105 °C. For COC(=O)[C@@H]1[C@@H](O[Si](C)(C)C(C)(C)C)CCN1C(=O)Nc1ccc(C#N)c(Cl)c1C, the melting point was 123 to 125 °C. COCOc1cc(OCOC)c2c(=S)cc(C)oc2c1 gave a melting point of 109 to 110 °C. In the case of Cc1nc(-c2cccc(C(F)(F)F)c2)c2nc(-c3ccccc3)cc-2[nH]1, the melting point is reported as 206 to 208 °C. With CCOC(=O)C(C)n1ncc2ccc([N+](=O)[O-])cc21 (stereo not given) the melting point was 99.7 to 100 °C. Cn1c(-c2cccs2)nnc1S(C)(=O)=O gave a melting point of 157 to 159 °C. Work on CCCc1c(OCCCS(=O)(=O)c2ccc(C(=O)CCC(=O)O)c(F)c2)ccc(C(C)=O)c1O yielded a melting point of 116 to 118 °C. For O=c1c(CO)coc2cc(OCCCN3CCC(c4noc5cc(F)ccc45)CC3)ccc12, the melting point was 200 to 202 °C. In the case of COC(=O)c1ccc(CNC(C)=O)cc1, the melting point is reported as 110 to 111 °C. For Nc1ncc2ncnc(Nc3ccc(F)c(Cl)c3)c2n1, the melting point was 300 to 301 °C. Nc1nnc(-c2cc(F)c(F)c(F)c2O)s1 gave a melting point of 309 °C. For CCCC(=O)c1cnc2c(C(O)CN(C)C)cccc2c1Nc1ccccc1C (stereo not given), the melting point was 95 to 96 °C. Work on CCCCCCCC(O)CNCCCCCCNCC(O)CCCCCCC (stereo not given) yielded a melting point of 122 to 129 °C. Molecule COC(=O)CCC12CCC(=O)N1C(=O)CC2 has a melting point of 110 to 112 °C. CCCC(CCC)Nc1nc(C)nc(Oc2c(Br)cc(C(C)(C)O)cc2OC)c1N gave a melting point of 114 to 116 °C. Cc1cc(NC(=O)C(C)(O)COc2cc(Cl)cc(Cl)c2)ccc1[N+](=O)[O-] (stereo not given) showed a melting point of 141 to 143 °C. Work on O=C1C=C(c2c[nH]c3ccc(OCc4ccccc4)cc23)C(=O)N1 yielded a melting point of 211 °C. With CCn1c(N)c(C(N)=O)c(=O)c2cnc(Nc3ccc(C(=O)N4CCN(C)CC4)cc3)nc21 the melting point was 281 °C. COP(=O)(OC)C(O)=Cc1ccc(C)cc1 gave a melting point of 100 to 102 °C. Cc1cc(C)n(-c2ccc(C(N)=O)nn2)n1 gave a melting point of 256 to 257 °C. Molecule CC(C(=O)Nc1ccc2c(c1)CC(=O)N2)N1CCC(Cc2ccccc2)CC1 (stereo not given) has a melting point of 153 to 155 °C. OC[C@@H]1CN(C(c2ccccc2)(c2ccccc2)c2ccccc2)CCO1 gave a melting point of 142 °C. With CC(=O)OC1CCC2(C)C(=CCC3C2CCC2(C)C(C(C)C(O)CCC(C)(C)C)CCC32)C1 (stereo not given) the melting point was 185 to 187 °C. O=C1CCCC(S(=O)(=O)c2ccccc2)C1 (stereo not given) showed a melting point of 83 to 85 °C. COc1nc(N)c2c(OC)c(OC)cc(Cl)c2n1 gave a melting point of 203 to 204 °C. Work on CC(=O)c1ccc(OCC(O)COc2ccc(C#N)cc2)cc1O (stereo not given) yielded a melting point of 162 to 163 °C. For CCCCCCCCOC(=O)NCCCCCCNC(=O)OCCCCCCCC, the melting point was 106 to 107 °C. Work on CCOc1ccc(C(CC(=O)OC)N2C(=O)c3ccc(N)cc3C2=O)cc1OCC (stereo not given) yielded a melting point of 143 to 145 °C. For CNC1NC(=O)c2ccccc21 (stereo not given), the melting point was 152 °C. For COc1ccc(C=CC(=O)c2cccc(OC)c2OC)cc1Oc1ccccc1, the melting point was 63.3 to 64 °C. OCC1OC(c2ccc(F)c(Cc3ccc(-c4nccs4)s3)c2)C(O)C(O)C1O (stereo not given) gave a melting point of 162 °C. Work on O=S(=O)(NCCc1ccc(CN2CCCCC2)cc1)c1ccc(Br)cc1 yielded a melting point of 109 to 110 °C. With CCOc1ccc(-c2nc(-c3ccc(N)c(C(=O)O)c3)cs2)cc1OCC the melting point was 228 to 229 °C. CN1CCN(c2ccc(C(=O)C(C)(C)N3CCN(C)CC3)cc2)CC1 gave a melting point of 133 to 136 °C. In the case of Nc1cc(Oc2ccc3c(c2)OCCN3)ncn1, the melting point is reported as 140 to 141 °C. In the case of CCN(C)C(=S)Nc1cc(Cl)c(OCCC[Si](C)(C)C)cc1C, the melting point is reported as 71 to 72 °C. CC(=O)OCC(COC(C)=O)(NC(=O)OC(C)(C)C)C(=O)c1ccccc1 showed a melting point of 112 to 113 °C. N#Cc1ccccc1-c1cc(-c2cnc3nccnn23)ccc1F showed a melting point of 211 to 215 °C. Molecule CCN(CC)C(=O)c1ccc(Nc2nc(OCC3CCCCC3)c3nc[nH]c3n2)cc1 has a melting point of 138 to 140 °C. NC(=O)c1cnn2c1NCCC2c1cccc(C(F)(F)F)c1 (stereo not given) showed a melting point of 152 to 154 °C. O=C(O)c1c(-c2ccccc2)c(=O)[nH]c2cc(Cl)ccc12 showed a melting point of 258 °C. CCC(=O)NNc1ccnc2c(NC(=O)c3c(Cl)cccc3Cl)cccc12 gave a melting point of 246 to 248 °C. CCCCC(CC)COC(=O)COc1cc(F)ccc1C(=O)NCc1cccc([N+](=O)[O-])c1 (stereo not given) gave a melting point of 59 to 60 °C. COc1ccc(N2CCOCC2)cc1NC(=S)C(=O)O showed a melting point of 156 to 158 °C. CCc1ccc(C2=NC(C)(C(C)C)C(=O)N2CC(=O)O)nc1 (stereo not given) gave a melting point of 134 to 136 °C. CC(=O)NC[C@H]1CN(c2ccc(C(=O)c3cnc4cnccn34)cc2)C(=O)O1 gave a melting point of 254 to 256 °C. Molecule COc1cc([N+](=O)[O-])c(N)cc1C(N)=O has a melting point of 250 to 257 °C. With CC1(C)CC(=O)c2ccc(OCCn3ccnc3)cc2O1 the melting point was 84 to 86 °C. CCC(Cc1ccc(OC)c(OCCc2ccc(C(F)(F)F)cc2)c1)C(=O)O (stereo not given) gave a melting point of 64 to 66 °C. O=C(O)CCc1cc(F)c2ncc(C(=O)NCc3ccc(Cl)cc3)c(O)c2c1 showed a melting point of 284 to 286 °C. CCOC(=O)C=CC=Cc1ccc([N+](=O)[O-])cc1 gave a melting point of 150 to 152 °C. Molecule COCCNc1ccc(C(=O)c2c(C)n(CCN3CCOCC3)c3ccccc23)cc1 has a melting point of 121 to 123 °C. Molecule COc1ccccc1Oc1c(Cl)nc(N2CCOCC2)nc1NS(=O)(=O)c1ccc(C(C)C)cn1 has a melting point of 168 to 176 °C. CC(=O)c1cc(S(=O)(=O)c2cccc(F)c2)ccc1OC[C@@H]1CO1 gave a melting point of 113 to 115 °C. Oc1ccc(C(=C2CCCCCC2)c2ccc(Br)cc2)cc1F showed a melting point of 102 to 104 °C. Molecule COc1ccc(CN2C(=O)[C@@H](NC(=O)Cc3ccccc3)[C@H]2CI)c(OC)c1 (relative stereo) has a melting point of 181 to 182 °C. Nc1ccc(-c2ccc(C(F)(F)F)cc2)cn1 gave a melting point of 130 °C. In the case of O=[N+]([O-])c1ccc(Oc2ccc(Cl)cc2)cc1, the melting point is reported as 67 to 70 °C. COC(=O)CCCCc1ccc(O)c(CCC(=O)OC)n1 showed a melting point of 92 to 95 °C. Work on COc1ccc(O)c(Cc2cccc(C(F)(F)F)c2)c1 yielded a melting point of 188 to 190 °C. With CCOC(=O)C(C=O)c1csc(NC=O)n1 (stereo not given) the melting point was 179 to 180 °C. For CCCOc1ccc(-c2ccc3c(c2)C=C(C(=O)Nc2ccc(C(O)c4ccccn4)cc2)CCS3(=O)=O)cc1 (stereo not given), the melting point was 208 to 210 °C. COc1ccc(-n2c(-c3ccc(Cl)cc3Cl)nc(C(=O)NC3CCCCC3)c2C)cc1 showed a melting point of 160 to 161 °C. CC(C)NCC(=O)Nc1cccc2c1C(=O)c1c(NC(=O)CNC(C)C)cccc1C2=O showed a melting point of 196 to 197 °C. With COC(=O)c1sc2ccccc2c1CBr the melting point was 101 to 102 °C. In the case of O=C1c2ccccc2CN1CCCN1CC=C(c2ccccc2)CC1, the melting point is reported as 104 °C. For CCOc1c(Cl)ccc(-c2nc(C(=O)OC)c(Cl)c(S(C)(=O)=O)n2)c1F, the melting point was 164 to 166 °C. Work on CCCc1cc(CC(=O)O)ccc1OC1COc2ccc(C(C)=O)c(O)c2C1 (stereo not given) yielded a melting point of 129 to 130 °C. Molecule CCNC(=O)NS(=O)(=O)c1cc2c(cc1OC)OCCC2CNC(=O)c1cc(Cl)ccc1OC (stereo not given) has a melting point of 211 to 213 °C. Cc1nccn1-c1nn(Nc2cnccn2)nc1-c1cccc(C#N)c1 showed a melting point of 276 °C. Work on O=C(c1ccc(O)c(F)c1)N(c1ccc(O)cc1)c1ccc(F)cc1 yielded a melting point of 110 to 112 °C. Work on Cc1nnc(-c2ccc3occ(-c4ccc(S(C)=O)c(C)c4)c3c2)o1 (stereo not given) yielded a melting point of 195 to 196 °C. Work on N#CN1CCC(=C2c3ccccc3Sc3cccnc32)CC1 yielded a melting point of 192 to 193 °C. Molecule O=C(c1cccc(C(F)(F)F)c1)c1cc2cccc(Br)c2o1 has a melting point of 75 to 78 °C. Work on COc1ccc(-c2nc(N)ncc2-c2ccc(=O)n(C)n2)cc1OC yielded a melting point of 232 °C. With CCOC(=O)C(=CNc1ccc(CC)nc1)C(=O)OCC the melting point was 55 to 57 °C. Molecule N#Cc1cnc2cnc(F)cc2c1Nc1ccc(Oc2ccccc2)cc1 has a melting point of 211 to 213 °C. In the case of Cc1ccc(C2CCCN2S(=O)(=O)c2ccc(F)cc2)c(C)c1 (racemic), the melting point is reported as 134 °C. Work on C=CCc1cc(C=CNC(C)=O)ccc1OCC1CO1 (stereo not given) yielded a melting point of 135 to 136 °C. Work on N#Cc1nn(-c2c(Cl)cc(C(F)(F)F)cc2Cl)c(N2CCOCC2)c1S(=O)(=O)C(F)(F)F yielded a melting point of 167 to 169 °C. With COC(=O)Nc1cc(C(C)(C)C)no1 the melting point was 86.5 to 87 °C. With CC1CC2C3CCC4=CC(=O)C=CC4(C)C3(F)C(O)CC2(C)C1(O)C(=O)COC(=O)OCc1ccccc1[N+](=O)[O-] (stereo not given) the melting point was 203 to 204 °C. For CC1(C)Oc2ccc(S(=O)(=O)c3ccc(C#N)cc3)cc2C(O)C1Br (stereo not given), the melting point was 157 to 158 °C. With C[C@@H]1NC(=O)OC1(c1ccccc1)c1ccccc1 the melting point was 264 to 266 °C. Molecule CCC(=O)Nc1c([N+](=O)[O-])cnn1-c1nc(Cl)c(C(F)(F)F)cc1Cl has a melting point of 148 to 154 °C. With O=C(NC1CC1)c1ccc(F)c2c1CC(N(CCCc1c[nH]c3ccc(F)cc13)C1CCC1)CO2 (stereo not given) the melting point was 134 °C. For CC1=N[C@H](c2ccccc2)COC1=O, the melting point was 71 to 72 °C.
